Experiments:
[1] = test system: experimental rheumatoid arthritis (bovine collagen type II immunized mice); assay: Experimental rheumatoid arthritis; type: in vivo; details: DBA/1JLacJ mice, 5 and 30 mg/kg/d intragastric, 30 days
[2] = test system: peripheral blood lymphocyte; assay: Effects on peripheral blood lymphocyte in mice; type: in vivo, Balb/c mice; details: intragastric; for toxicity: dose up to 30 mg/kg/d; for toxicity / behavior and weight of mice, pre- versus post-administration: four days; for numbers of peripheral blood lymphocyte reduced compared to pre-administration: once a day for continuous four days
Method: 3. Effects of the Compounds in Example-21 and Example-22 on Peripheral Blood Lymphocyte in Mice
3.1 Experimental Materials:
1) 15% EDTA, PBS, EP tubes, 15 ml centrifuge tube, capillary tube, pipette tip were all purchased from Shanghai biological technology co., Ltd. Hemocyte analysis reagents were purchased from Shanghai Sysmex Company.
2) 35 Balb/c mice (female, 20-22 g), supplied by laboratory animal center of Jilin University.
3) Automated Hematology Analyzer (pocH-100 iV Diff) was purchased from Sysmex Company, Kobe, Japan.
1) The stock solutions of the compounds obtained in Example-21 and Example-22 were prepared with normal saline, and the concentrations are 2 mg/ml and 20 mg/ml, respectively.
2) The mice were divided into […], i.e., control group, low-dose experimental group, and high-dose experimental group. They were weighed and labeled well.
3) Before administration, supraorbital venous blood was collected with 20 μl/mouse which was added to anticoagulant tube containing EDTA, and nosed thoroughly. The numbers of lymphocytes were analyzed by pocH-100.
4) The control group was given normal saline: low-dose experimental groups were given the compounds obtained in Example-21 and Example-22 (5 mg/kg/d), high-dose experimental groups were given the compounds obtained in Example-21 and Example-22 (30 mg/kg/d), with liquid amount of 500 μl/mouse, by intragastric administration. Administration was performed for continuous four days, once a day. After 3.5 hours of the first and fourth administration, blood was collected respectively, and changes in the numbers of lymphocytes were analyzed by pocH-100.

S1P1 [3] = target: T1, S1P1 (Homo sapiens (Human), UniProt P21453); assay: S1P1 GTPγS binding assay; type: biochemical; details: [35S]-GTPγS, membranes with high-expressed S1P1 (CHO-S1P1)
T1 sequence (P21453 whole entry): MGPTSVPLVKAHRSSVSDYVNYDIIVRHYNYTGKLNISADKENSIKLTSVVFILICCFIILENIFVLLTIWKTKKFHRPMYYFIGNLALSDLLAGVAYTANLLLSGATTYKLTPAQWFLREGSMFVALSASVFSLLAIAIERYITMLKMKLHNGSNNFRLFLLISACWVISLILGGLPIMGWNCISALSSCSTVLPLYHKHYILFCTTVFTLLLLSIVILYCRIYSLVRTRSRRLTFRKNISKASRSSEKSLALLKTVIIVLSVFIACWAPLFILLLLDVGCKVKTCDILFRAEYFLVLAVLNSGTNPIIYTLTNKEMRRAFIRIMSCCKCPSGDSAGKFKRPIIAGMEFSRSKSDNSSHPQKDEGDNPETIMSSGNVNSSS
Method: 1. S1P1GTPγS Binding Assay
2) T-75 cell culture plate; 150 mm cell culture dish
3) DMEM cell culture fluid; 10% (v/v) fetal bovine serum; 100 U/ml penicillin-100 μg/ml streptomycin; 2 mM […], 1 mg/ml G-418
4) Cell Lysis Buffer: HEPES 20 mM (pH 7.4), EDTA 10 mM
5) Stock solution: HEPES 20 mM, EDTA 0.1 mM
6) Binding Buffer; HEPES 20 mM (pH 7.4), NaCl 100 mM, MgCl2 5 mM, GDP 1 μM, BSA 0.1% (w/v), DMSO 2.5% (v/v),
7) Washing solution: NaH2PO4 10 mM (pH 7.4)
The test compounds were dissolved in DMSO and prepared as a concentration of 20 mM.
The concentrations of the compounds were detected ranging from 0.3 nM to 20 μM.
Control group: […] SIP and SEW2871 were used as positive control and were purchased from Tocris company, and the binding buffet was as negative control.
Test method: wetting membranes by saponin solution, and preparing [^35S]-GTPγS in binding solution (4×). The test compound was prepared as 4× of the final concentration which was then performed serial 3× dilution in 100% DMSO. Membranes with high-expressed S1P1 were collected in 5 ml binding buffer, and 50 μL was added to 96-well (containing 5 μg membrane protein with high-expressed S1P1). 25 μL, test compound was added in each well. The compound was incubated with the membranes for 30 min at room temperature, then 25 μL [^35S]-GTPγS was added, and the experiment was initiated. The 96-well detection plate was incubated for 1 hour at room temperature, filtered by filtermat B, and washed with washing solution for three times. After the plate was dried for 1 h at 50° C., 8 ml scintillator solution was added and counted using scintillation counter.
Result Analysis and Determination of 50% Inhibitory Concentration (IC50):
The IC50 value was calculated by using (Prism 4) software, and 50% inhibitory concentrations were obtained.

[4] = test system: autoimmune multiple sclerosis (PLP139-151 immunized mice); assay: Experimental autoimmune multiple sclerosis; type: in vivo; details: SJL/J mice, 5 and 30 mg/kg/d intragastric, 30 days
S1P1 [5] = target: T1, S1P1; assay: S1P1 β-arrestin assay (PathHunter CHO-K1 EDG1); type: cell-based; details: CHO-EDG-1 cells
Method: 2.1 Experimental Materials: Path hunter express CHO-K1 EDG1 β-arrestin GPCR Assay was purchased from DiscoveRx, containing CHO-EDG-1 cells, buffers, substrate-1, substrate-2, cell culture fluid, 96-well cell culture plate.
1) The test compounds were dissolved in DMSO and prepared as a concentration of 20 mM.
2) The concentrations of the test compounds were detected ranging from […] to 20 μM.
4) Assay procedures: OCC culture solution was preheated in water tank at 37° C. Cells were taken out from liquor nitrogen tank, left on the dry-ice, and dissolved in water tank at 37° C. 0.5 ml OCC culture solution was added and blended slowly. The cells were diluted in 11.5 mL OCC culture solution, and 100 μL cell suspension (containing 8333 cells) was added to each well of the 96-well plate. The 96-well plate was incubated for 8 hours under 5% CO2 at 37° C., and 10 μL test compound dissolved in DMSO was added in; 10 μL DMSO was used as negative control. After the plate was incubated for 90 min at 37° C., 55 μL detection solution was added to each well. Then the results were read out by EnVision after the cell plate was incubated for 90 min at room temperature.
The EC50 Value was Calculated by Using Prism 4 Software

[6] = test system: peripheral blood lymphocyte; details: general statement for FTY720; cited from earlier work

Compound	IC50 (S1P1 [3]) [µM]	EC50 (S1P1 [5]) [µM]	also measured
2-(7-amino-5,6,7,8-tetrahydro-7-naphthalenemethanol)-5-(3-methyl-4-isopropoxy)-1,3,4-oxdiazole [Example 22]	0.003	0.008	effect on induction and development of experimental rheumatoid arthritis [1]: obviously inhibiting; effect on induction and development of experimental rheumatoid arthritis ([1]; listed as Example-22): remarkable inhibitory effects; toxicity [2]: no toxicity effects; behavior and weight of mice, pre- versus post-administration [2]: no differences; numbers of peripheral blood lymphocyte reduced compared to pre-administration [2]: 78%; effect on induction and development of autoimmune multiple sclerosis [4]: obviously inhibiting; effect on induction and development of autoimmune multiple sclerosis ([4]; listed as Example-22): remarkable inhibitory effects
2-(7-benzylamino-5,6,7,8-tetrahydro-7-naphthalenemethanol)-5-(3-methyl-4-isopropoxy)-1,3,4-oxdiazole [Example 21]	0.179		effect on induction and development of experimental rheumatoid arthritis [1]: obviously inhibiting; effect on induction and development of experimental rheumatoid arthritis ([1]; listed as Example-21): remarkable inhibitory effects; toxicity [2]: no toxicity effects; behavior and weight of mice, pre- versus post-administration [2]: no differences; numbers of peripheral blood lymphocyte reduced compared to pre-administration [2]: 92%; effect on induction and development of autoimmune multiple sclerosis [4]: obviously inhibiting; effect on induction and development of autoimmune multiple sclerosis ([4]; listed as Example-21): remarkable inhibitory effects
COCCOc1ccc(-c2nnc(-c3ccc4c(c3)CC(N)(CO)CC4)o2)cc1 (centres unmarked) [Example 10, 7-{5-[4-(2-methoxyethoxy)phenyl]-2-[1,3,4]oxdiazolyl]-2-amino-1,2,3,4-tetrahydro-naphthalen-2-yl-methanol]	0.0317	0.077	
CC(C)Oc1ccc(-c2nnc(-c3ccc4c(c3)CC(N)(CO)CC4)o2)cc1C(F)(F)F (centres unmarked) [Example 11, 7-[5-(3-trifluoromethyl-4-isopropoxyphenyl)-2-[1,3,4]oxdiazolyl]-2-amino-1,2,3,4-tetrahydronaphthalen-2-yl-methanol]	0.0004	0.0031	
COc1ccc(-c2nnc(-c3ccc4c(c3)CC(N)(CO)CC4)o2)cc1C (centres unmarked) [Example 15, 7-[5-(4-methoxy-3-methylphenyl)-2-1,3,4-oxdiazolyl]-2-amino-1,2,3,4-tetrahydro-naphthalen-2-yl-methanol]	0.016	0.027	
Cc1cc(-c2nnc(-c3ccc4c(c3)CC(CO)(N(C)C)CC4)o2)ccc1OC(C)C (centres unmarked) [Example 24, 7-[5-(3-methyl-4-isopropoxyphenyl)-2-1,3,4-oxdiazolyl]-2-dimethylamino-1,2,3,4-tetrahydro-naphthalen-2-yl-methanol]	0.046	0.354	
Cc1cc(-c2noc(-c3ccc4c(c3)CC(N)(CO)CC4)n2)ccc1OC(C)C (centres unmarked) [Example 27, 7-[3-(3-methyl-4-isopropoxyphenyl)-5-1,2,4-oxdiazolyl]-2-amino-1,2,3,4-tetrahydro-naphthalen-2-yl-methanol]	0.0012	0.02	
Cc1cc(-c2nc(-c3ccc4c(c3)CC(N)(CO)CC4)no2)ccc1OC(C)C (centres unmarked) [Example 29, 7-[5-(3-methyl-4-isopropoxyphenyl)-3-1,2,4-oxdiazolyl]-2-amino-1,2,3,4-tetrahydro-naphthalen-2-yl-methanol]	0.0004	0.0099	
Cc1cc(-c2cn(-c3ccc4c(c3)CC(N)(CO)CC4)nn2)ccc1OC(C)C (centres unmarked) [Example 31, 7-[4-(3-methyl-4-isopropoxyphenyl)-1-1,2,3-triazolyl]-2-amino-1,2,3,4-tetrahydro-naphthalen-2-yl-methanol]	0.005	0.0143	
CCCCCCCCc1ccc(CCC(N)(CO)CO)cc1 [FTY720]			number of peripheral blood lymphocytes decreased [6]: 70-80%

From patent publication US9315492B2, “Heterocyclic group contained amino-methanol derivative, and salt, synthetic method and use thereof” (BEIJING FORELAND BIOPHARMA CO., LTD., priority 2012, dated 2016)
